ChEMBL document CHEMBL3351514, “Design and synthesis of new of 3-(benzo[d]isoxazol-3-yl)-1-substituted pyrrolidine-2, 5-dione derivatives as anticonvulsants” (Eur J Med Chem, 2014)
Calls of active or inactive are those of the source. The rule behind the calls is not given here.

Assays:
Mus musculus [1] = test: Anticonvulsant activity in albino Swiss mouse assessed as assessed as protection against subcutaneous pentylenetetrazol-induced seizures at 300 mg/kg, ip at 4 hrs; assay type: functional, organism-based; design: dose 300 mg/kg
Mus musculus [2] = test: Anticonvulsant activity in albino Swiss mouse assessed as protection against maximal electroshock-induced seizures at 300 mg/kg, ip at 4 hrs; assay type: functional, organism-based; design: dose 300 mg/kg
Rattus norvegicus [3] = test: Anticonvulsant activity in albino Wistar rat assessed as protection against subcutaneous pentylenetetrazol-induced seizures at 50 mg/kg, po at 0.5 hr; assay type: functional
[4] = Neurotoxicity in ip dosed albino Wistar rat at 4 hrs by rotorod test; assay type: toxicity, organism-based; details: in vivo
Mus musculus [5] = test: Anticonvulsant activity in albino Swiss mouse assessed as protection against maximal electroshock-induced seizures at 300 mg/kg, ip at 0.5 hr; assay type: functional, organism-based; design: dose 300 mg/kg
Rattus norvegicus [6] = test: Anticonvulsant activity in albino Wistar rat assessed as protection against subcutaneous pentylenetetrazol-induced seizures at 50 mg/kg, po at 1 hr; assay type: functional
[7] = Neurotoxicity in ip dosed albino Wistar rat at 0.5 hr by rotorod test; assay type: toxicity, organism-based; details: in vivo
Mus musculus [8] = test: Anticonvulsant activity in ip dosed albino Swiss mouse assessed as assessed as protection against subcutaneous pentylenetetrazol-induced seizures at 0.5 hr; assay type: functional
Rattus norvegicus [9] = test: Anticonvulsant activity in albino Wistar rat assessed as protection against maximal electroshock-induced seizures at 30 mg/kg, po at 1 hr; assay type: functional
[10] = Neurotoxicity in po dosed albino Wistar rat at 1 hr by rotorod test; assay type: toxicity, organism-based; details: in vivo
Rattus norvegicus [11] = test: Anticonvulsant activity in albino Wistar rat assessed as protection against maximal electroshock-induced seizures at 30 mg/kg, po at 0.5 hr; assay type: functional
Rattus norvegicus [12] = test: Anticonvulsant activity in albino Wistar rat assessed as protection against maximal electroshock-induced seizures at 30 mg/kg, po at 0.25 hr; assay type: functional
in vivo [13] = details: Wistar, rat, po
Description: Protective index, ratio of TD50 for neurotoxicity in po dosed albino Wistar rat to ED50 for anticonvulsant activity in po dosed albino Wistar rat assessed as protection against maximal electroshock-induced seizures at 1 hr

Rattus norvegicus [14] = test: Anticonvulsant activity in albino Wistar rat assessed as protection against maximal electroshock-induced seizures at 30 mg/kg, po at 4 hrs; assay type: functional
Rattus norvegicus [15] = test: Anticonvulsant activity in po dosed albino Wistar rat assessed as protection against maximal electroshock-induced seizures at 1 hr; assay type: functional
Mus musculus [16] = test: Anticonvulsant activity in ip dosed albino Swiss mouse assessed as protection against maximal electroshock-induced seizures at 0.5 hr; assay type: functional
Rattus norvegicus [17] = test: Anticonvulsant activity in albino Wistar rat assessed as protection against maximal electroshock-induced seizures at 30 mg/kg, po at 2 hrs; assay type: functional
Mus musculus [18] = test: Anticonvulsant activity in albino Swiss mouse assessed as assessed as protection against subcutaneous pentylenetetrazol-induced seizures at 300 mg/kg, ip at 0.5 hr; assay type: functional, organism-based; design: dose 300 mg/kg
Mus musculus [19] = test: Anticonvulsant activity in ip dosed albino Swiss mouse assessed as assessed as protection against subcutaneous pentylenetetrazol-induced seizures at 4 hrs; assay type: functional
Rattus norvegicus [20] = test: Anticonvulsant activity in albino Wistar rat assessed as protection against subcutaneous pentylenetetrazol-induced seizures at 50 mg/kg, po at 4 hrs; assay type: functional
[21] = Neurotoxicity in po dosed albino Wistar rat at 4 hrs by rotorod test; assay type: toxicity, organism-based; details: in vivo
Rattus norvegicus [22] = test: Anticonvulsant activity in albino Wistar rat assessed as protection against subcutaneous pentylenetetrazol-induced seizures at 50 mg/kg, po at 2 hrs; assay type: functional
Mus musculus [23] = test: Anticonvulsant activity in ip dosed albino Swiss mouse assessed as protection against maximal electroshock-induced seizures at 4 hrs; assay type: functional
[24] = Protective index, ratio of TD50 for neurotoxicity in po dosed albino Wistar rat to ED50 for anticonvulsant activity in po dosed albino Wistar rat assessed as protection against subcutaneous pentylenetetrazol-induced seizures at 4 hrs; assay type: toxicity, organism-based; details: in vivo, read-out: Ratio TD50/ED50
Rattus norvegicus [25] = test: Anticonvulsant activity in po dosed albino Wistar rat assessed as protection against subcutaneous pentylenetetrazol-induced seizures at 4 hrs; assay type: functional
Rattus norvegicus [26] = test: Anticonvulsant activity in po dosed albino Wistar rat assessed as protection against subcutaneous pentylenetetrazol-induced seizures at 2 hrs; assay type: functional
Rattus norvegicus [27] = test: Neurotoxicity in albino Wistar rat at 300 mg/kg, ip at 4 hrs by rotorod test; assay type: toxicity, organism-based; design: dose 300 mg/kg, route intraperitoneal; details: in vivo
in vivo [28] = details: Wistar, rat, po; remark: listed apart in the source
Description: Protective index, ratio of TD50 for neurotoxicity in po dosed albino Wistar rat to ED50 for anticonvulsant activity in po dosed albino Wistar rat assessed as protection against subcutaneous pentylenetetrazol-induced seizures at 2 hrs

Rattus norvegicus [29] = test: Neurotoxicity in albino Wistar rat at 300 mg/kg, ip at 0.5 hr by rotorod test; assay type: toxicity, organism-based; design: dose 300 mg/kg, route intraperitoneal; details: in vivo
[30] = Neurotoxicity in po dosed albino Wistar rat at 2 hrs by rotorod test; assay type: toxicity, organism-based; details: in vivo
Rattus norvegicus [31] = test: Anticonvulsant activity in po dosed albino Wistar rat assessed as protection against maximal electroshock-induced seizures at 2 hrs; assay type: functional
[32] = Protective index, ratio of TD50 for neurotoxicity in po dosed albino Wistar rat to ED50 for anticonvulsant activity in po dosed albino Wistar rat assessed as protection against maximal electroshock-induced seizures at 2 hrs; assay type: toxicity, organism-based; details: in vivo, read-out: Ratio TD50/ED50

Row | SMILES | Activity (Mus musculus [1]) | Activity (Mus musculus [2]) | Activity (Rattus norvegicus [3]) | MTD at 4 h [4] | Activity (Rattus norvegicus [6]) | MTD at 0.5 h [7] | MED50 (Mus musculus [8]) | Activity (Rattus norvegicus [9]) | Activity (Rattus norvegicus [11]) | Activity (Rattus norvegicus [12]) | Activity (Rattus norvegicus [14]) | MED50 (Mus musculus [16]) | Activity (Rattus norvegicus [17]) | MED50 (Mus musculus [23]) | also measured
1 | CCCCN1C(=O)CC(c2noc3ccccc23)C1=O (configuration not stated) | inactive | inactive | 25% | 100 mg/kg | 25% | 100 mg/kg | 100 mg/kg | – | – | – | – | – | – | – | Activity (Mus musculus [5]): inactive
2 | O=C1NC(=O)C(c2ccccc2)(c2ccccc2)N1 [PHENYTOIN] | inactive | inactive | – | 100 mg/kg | – | 100 mg/kg | – | 75% | 100% | 25% | 75% | 30 mg/kg | 75% | – | TD50 at 1 h [10]: > 100 mg/kg; selectivity ratio at 1 h (in vivo [13]): > 3.55; ED50 (Rattus norvegicus [15]): 28.1 mg/kg; Activity (Mus musculus [18]): inactive
3 | O=C1CC(c2noc3ccccc23)C(=O)N1C1CCCCC1 (configuration not stated) | – | – | 25% | 300 mg/kg | 25% | 300 mg/kg | 100 mg/kg | – | – | – | – | 300 mg/kg | – | 300 mg/kg | MED50 (Mus musculus [19]): 100 mg/kg; Activity (Rattus norvegicus [20]): 25%; TD50 at 4 h [21]: > 150 mg/kg; Activity (Rattus norvegicus [22]): 25%; selectivity ratio at 4 h [24]: > 3.54; ED50 (Rattus norvegicus [25]): 42.3 mg/kg
4 | COc1ccc(N2C(=O)CC(c3noc4ccccc34)C2=O)cc1 (configuration not stated) | inactive | – | 25% | 300 mg/kg | 25% | 100 mg/kg | 100 mg/kg | 25% | 25% | 25% | 25% | 100 mg/kg | 50% | 300 mg/kg | –
5 | CCCN1C(=O)CC(c2noc3ccccc23)C1=O (configuration not stated) | inactive | inactive | – | – | – | – | 300 mg/kg | – | – | – | – | 300 mg/kg | – | – | –
6 | CCC1(C)CC(=O)NC1=O (configuration not stated) [ETHOSUXIMIDE] | – | inactive | 50% | – | 25% | – | 100 mg/kg | – | – | – | – | – | – | – | MED50 (Mus musculus [19]): 300 mg/kg; ED50 (Rattus norvegicus [26]): 167 mg/kg; Activity (Rattus norvegicus [27]): Non-toxic; selectivity ratio at 2 h (in vivo [28]): > 3; Activity (Rattus norvegicus [22]): 25%; Activity (Rattus norvegicus [29]): Non-toxic; Activity (Mus musculus [5]): inactive; TD50 at 2 h [30]: > 500 mg/kg
7 | O=C1CC(c2noc3ccccc23)C(=O)N1c1ccccn1 (configuration not stated) | inactive | inactive | – | – | – | – | 300 mg/kg | – | – | – | – | 300 mg/kg | – | – | –
8 | O=C1CC(c2noc3ccccc23)C(=O)N1c1ccccc1 (configuration not stated) | – | – | – | 300 mg/kg | – | 100 mg/kg | 300 mg/kg | 50% | 25% | 25% | 50% | 30 mg/kg | 50% | 100 mg/kg | MED50 (Mus musculus [19]): 300 mg/kg
9 | O=C1CC(c2noc3ccccc23)C(=O)N1c1ccncc1 (configuration not stated) | inactive | inactive | – | – | – | – | 300 mg/kg | – | – | – | – | 300 mg/kg | – | – | –
10 | O=C1CC(c2noc3ccccc23)C(=O)N1c1ccc(F)cc1 (configuration not stated) | inactive | – | 25% | 300 mg/kg | 25% | 300 mg/kg | 100 mg/kg | 75% | 50% | 25% | 100% | 30 mg/kg | 100% | 30 mg/kg | ED50 (Rattus norvegicus [31]): 14.9 mg/kg; Activity (Rattus norvegicus [22]): 25%; selectivity ratio at 2 h [32]: > 33.5; TD50 at 2 h [30]: > 500 mg/kg
11 | CCN1C(=O)CC(c2noc3ccccc23)C1=O (configuration not stated) | inactive | inactive | – | – | – | – | 300 mg/kg | – | – | – | – | 300 mg/kg | – | – | –
12 | O=C1CC(c2noc3ccccc23)C(=O)N1c1ccc(Cl)cc1 (configuration not stated) | inactive | inactive | – | – | – | – | 300 mg/kg | – | – | – | – | 300 mg/kg | – | – | –
13 | O=C1CC(c2noc3ccccc23)C(=O)N1c1cccnc1 (configuration not stated) | inactive | inactive | – | – | – | – | – | – | – | – | – | – | – | – | Activity (Mus musculus [5]): inactive; Activity (Mus musculus [18]): inactive
